Measurements as given in patent US9308215B2, “Avermectins and milbemycins as anti-mycobacterial agents” (priority 2013, dated 2016).
≈ marks a conversion by molar mass, not a printed value. Where two headings read alike, the source gives them in different places.

How the values were obtained:
[1] = 12 mg/kg oral, cited from earlier work
[2] = system: R. jostii; experiment: microbe, parasite or virus in culture; assay type: cell-based, Rhodococcus jostii; conditions: Rhodococcus jostii, read-out: In vitro MIC90
[3] = cited from earlier work
[4] = Rats, 10 mg/kg oral; cited from earlier work
[5] = system: M. bovis BCG; experiment: microbe, parasite or virus in culture; assay type: cell-based, Mycobacterium bovis; conditions: Mycobacterium tuberculosis variant bovis BCG, BCG, read-out: In vitro MIC90
[6] = system: S. aureus; experiment: microbe, parasite or virus in culture; assay type: cell-based, Staphylococcus aureus; conditions: Staphylococcus aureus, ATCC25923, read-out: In vitro MIC90
[7] = system: representative Gram-positive and Gram-negative bacteria; assay type: cell-based
[8] = system: A. baumannii; experiment: microbe, parasite or virus in culture; assay type: cell-based, Acinetobacter baumannii; conditions: Acinetobacter baumannii, ATCC1960, read-out: In vitro MIC90
[9] = system: M. smegmatis; experiment: microbe, parasite or virus in culture; assay type: cell-based, Mycobacterium smegmatis; conditions: Mycolicibacterium smegmatis, MC^2155, read-out: In vitro MIC90
[10] = system: E. coli; experiment: microbe, parasite or virus in culture; assay type: cell-based, Escherichia coli; conditions: Escherichia coli, read-out: In vitro MIC90
[11] = rats; cited from earlier work
[12] = Cats, cited from earlier work
[13] = system: M. tuberculosis; experiment: microbe, parasite or virus in culture; assay type: cell-based, Mycobacterium tuberculosis; conditions: for MIC90: Mycobacterium tuberculosis
[14] = cited from earlier work; remark: listed apart in the source
[15] = system: M. intracellulare; experiment: MIC against mycobacterial species; assay type: cell-based; conditions: Mycobacterium intracellulare
[16] = system: M. aurum; experiment: MIC against mycobacterial species; assay type: cell-based; conditions: Mycolicibacterium aurum
[17] = system: M. phlei; experiment: MIC against mycobacterial species; assay type: cell-based; conditions: Mycolicibacterium phlei
[18] = system: M. gordonae; experiment: MIC against mycobacterial species; assay type: cell-based; conditions: Mycobacterium gordonae
[19] = system: P. aeruginosa; experiment: microbe, parasite or virus in culture; assay type: cell-based, Pseudomonas aeruginosa; conditions: Pseudomonas aeruginosa, read-out: In vitro MIC90
[20] = cats; cited from earlier work
[21] = system: M. avium; experiment: MIC against mycobacterial species; assay type: cell-based, Mycobacterium avium; conditions: Mycobacterium avium
[22] = system: M. chelonae; experiment: MIC against mycobacterial species; assay type: cell-based; conditions: Mycobacteroides chelonae
[23] = system: K. rhizophila; experiment: microbe, parasite or virus in culture; assay type: cell-based, Kocuria rhizophila; conditions: Kocuria rhizophila, read-out: In vitro MIC90
[24] = cited from earlier work; remark: listed apart in the source
[25] = system: S. lividans; experiment: microbe, parasite or virus in culture; assay type: cell-based, Streptomyces lividans; conditions: Streptomyces lividans, read-out: In vitro MIC90
[26] = system: M. tuberculosis H37Rv and mc25857 (an MDR isolate); assay type: cell-based, Mycobacterium tuberculosis

CO[C@H]1C[C@H](O[C@@H]2/C(C)=C/C[C@@H]3C[C@@H](C[C@]4(CC[C@H](C)[C@@H](C5CCCCC5)O4)O3)OC(=O)[C@@H]3C=C(C)/C(=N/O)[C@H]4OC/C(=C\C=C\[C@@H]2C)[C@]43O)O[C@@H](C)[C@@H]1O [Selamectin]
Cmax ([1]; Mouse (lung)): 7500 ng/mL | AUC ([1]; Mouse (plasma)): 62.2857 µg·h/mL | Cmax ([1]; Mouse (plasma)): 3714 ng/mL | MIC90 [2]: > 256 µg/mL | AUC ([3]; Dogs female, 6 mg/kg (topical)): 8.903 µg·h/mL | Cmax ([3]; Dogs female, 6 mg/kg (topical)): 22.65 ng/mL | T½ ([3]; Dogs female, 6 mg/kg (topical)): 257.5 h | AUC ([3]; Dogs males, 6 mg/kg (topical)): 4.609 µg·h/mL | Cmax ([3]; Dogs males, 6 mg/kg (topical)): 12.72 ng/mL | T½ ([3]; Dogs males, 6 mg/kg (topical)): 291.4 h | AUC ([3]; Dogs, 24 mg/kg (topical)): 15.229 µg·h/mL | Cmax ([3]; Dogs, 24 mg/kg (topical)): 86.5 ng/mL | AUC ([3]; Dogs, 24 mg/kg oral): 227.901 µg·h/mL | Cmax ([3]; Dogs, 24 mg/kg oral): 7630 ng/mL | T½ ([3]; Dogs, 24 mg/kg oral): 45.7 h | Cmax [4]: >1000 ng/mL | T½ [4]: 10.3 h | MIC90 [5]: 4 µg/mL (≈ 5.19 µM) | MIC90 [6]: > 256 µg/mL | Inhibitory effects [7]: not observed | MIC90 [8]: > 256 µg/mL | MIC90 [9]: 4 µg/mL (≈ 5.19 µM) | MIC90 [10]: > 256 µg/mL | LD50 [11]: > 1,600 mg/kg body weight | AUC ([12]; 24 mg/kg (topical)): 743.349 µg·h/mL | Cmax ([12]; 24 mg/kg (topical)): 5513 ng/mL | AUC ([12]; 24 mg/kg oral): 1109.933 µg·h/mL | Cmax ([12]; 24 mg/kg oral): 11929 ng/mL | activity in dose response curves compared to ivermectin and doramectin ([13]; M. tuberculosis H37Rv and an MDR clinical isolate (FIG. 10)): increased activity | activity in dose response curves ([13]; MDR clinical isolates BC-MDR2, BC-MDR3, BC-MDR4 and BC-MDR5 (FIG. 11)): consistently more active than ivermectin | MIC90 ([13]; ERDMAN, read-out: In vitro MIC90, strain Erdman, WT): 2 µg/mL (≈ 2.6 µM) | MIC90 ([13]; read-out: In vitro MIC90, strain 1254, WT): 2 to 4 µg/mL (≈ 2.6 to 5.19 µM) | MIC90 ([13]; read-out: In vitro MIC90, strain BC-DS1 (drug-susceptible)): 2 µg/mL (≈ 2.6 µM) | MIC90 ([13]; read-out: In vitro MIC90, strain BC-DS3 (drug-susceptible)): 1 to 2 µg/mL (≈ 1.3 to 2.6 µM) | MIC90 ([13]; read-out: In vitro MIC90, strain BC-DS4 (drug-susceptible)): 1 to 2 µg/mL (≈ 1.3 to 2.6 µM) | MIC90 ([13]; read-out: In vitro MIC90, strain BC-DS5 (drug-susceptible)): 2 to 4 µg/mL (≈ 2.6 to 5.19 µM) | MIC90 ([13]; read-out: In vitro MIC90, strain CDC 1551, WT): 1 µg/mL (≈ 1.3 µM) | sensitivity of the ivermectin-less-sensitive strains ([13]; strains CI15072, CI12081, BC-MDR2, BC-DS4 and BC-DS5): unaffected | oral dose found safe ([14]; 3-month repeated dose toxicity study in dogs): 40 mg/kg/day | doses reported to be safe ([14]; dogs): up to 24 mg/kg | toxicity in dogs lacking MDR1 P-glycoprotein / homozygous MDR1 mutation ([14]; ivermectin: extra-label use, selamectin, moxidectin: therapeutic doses): without any signs of toxicosis | MIC ([15]; ATCC35761, M. intracellulare 1403 ATCC35761): 1 µg/mL (≈ 1.3 µM) | MIC ([15]; M. intracellulare D673): 2 µg/mL (≈ 2.6 µM) | MIC ([15]; M. intracellulare FM): 2 µg/mL (≈ 2.6 µM) | MIC ([15]; M. intracellulare 1403 Trudeau): 1 µg/mL (≈ 1.3 µM) | MIC [16]: 1 µg/mL (≈ 1.3 µM) | MIC [17]: 4 µg/mL (≈ 5.19 µM) | safe dose extrapolated to a 70 kg adult (from 24 mg/kg in cats and dogs): 1,680 mg | safe dose extrapolated to humans (from 40 mg/kg/day in dogs): 2,800 mg/day | MIC [18]: < 0.25 µg/mL | MIC90 [19]: > 256 µg/mL | doses reported to be safe [20]: up to 24 mg/kg | MIC ([21]; ATCC25291, M. avium ATCC 25291): 16 µg/mL (≈ 20.8 µM) | MIC ([21]; M. avium 702): 64 µg/mL (≈ 83.1 µM) | MIC ([21]; M. avium 715): 128 µg/mL (≈ 166 µM) | MIC [22]: 2 µg/mL (≈ 2.6 µM) | MIC90 [23]: > 256 µg/mL | LD50 ([24]; mice): > 1,600 mg/kg body weight | dose well tolerated ([24]; mouse, in vivo): up to 300 mg/kg body weight | MIC90 [25]: > 256 µg/mL | bactericidal profile ([26]; 21-day kill curves, various concentrations, H37Rv): strongest bactericidal profile | bactericidal or bacteriostatic ([26]; in vitro against M. tuberculosis, survival kinetics): Bactericidal
